Results reported in patent US20250152580A1, “METHODS FOR TREATING IMMUNE DISEASES” (Ascentage Pharma (Suzhou) co., Ltd., priority 2022, published 2025).
Entries after “also recorded” stand apart in the source; their conditions may differ.

Legend:
[1] = test system: OVA induced asthma model; assay: OVA (ovalbumin) induced asthma model in Balb/cA mice; format: in vivo; details: for pathological score in lung tissues (H&E): vehicle 4.08±0.23
Source text: Ovalbumin (OVA)-sensitized and challenged BALB/c mice are widely used as an asthma model and are characterized by high levels of serum IgE, airway inflammation, epithelial hypertrophy, goblet cell hyperplasia, and AHR, which are similar to the features observed in human allergic asthma.
Female Balb/cA mice (8 weeks old) were obtained from Shanghai Jihui Laboratory Animal Co. Ltd. Animals were housed and handled in a temperature-controlled environment with a 12-h light/12-h dark cycle. A total of 66 mice were assigned to 6 groups by randomization based on body weight.
Mice in Group 2 are intraperitoneally immunized with OVA (25 μg) emulsified in Imject alum (2.0 mg of Al[OH]3) on day 1. During this sensitization phase, the mice produce anti-OVA IgE antibodies, which bind IgE receptors on mast cells. After this sensitization, the mice are intratracheally challenged with OVA from day 8 today 14, resulting in OVA cross-linked IgE on mast cells and leading to degranulating mast cells. Mice then develop clinical features of asthma. The mice in the Group 1 normal control group were sensitized and challenged with […] (without OVA).
Mice in Group 1 and Group 2 were treated with vehicle for 7 days (po, qd, from day 8 to day 14). Mice in Group 3 were treated with 50 mg/kg Cpd. X for 8 days (iv, biw, day 1 and day 4). Mice in Group 4 were treated with 30 mg/kg Cpd. 4 for 7 days (po, qd, from day 8 to day 14). Mice in Group 5 were treated with 100 mg/kg Cpd. 4 for 7 days (po, qd, from day 8 to day 14). 3 mg/kg dexamethasone was used as positive control which was orally administered to mice in Group 6 for 7 days (qd, from day 8 to day 14). The protocols and procedures involving the care and use of animals were approved by the Institutional Animal Care and Use Committee (IACUC) at KCI (Suzhou, China).
Airway responsiveness was determined invasively based on lung resistance.
After challenge with aerosolized methacholine. Briefly, mice were challenged with methacholine aerosol in increasing concentrations (0, 6.25, 12.5, and 25 mg/mL in saline) on day 13 by using the noninvasive pulmonary function instrument. Data on lung resistance were continuously collected, and mean values were selected to express changes in airway function and regarded as one form of inflammation expression. Data are presented as the airway stenosis index (penh).
Twenty-four hours after the final OVA challenge (on day 15), mice were killed, and BAL cells were collected by means of slow injection of ice-cold PBS into the trachea, which was repeated 3 times. Numbers of cells in BAL fluid were counted with a chamber. Number of eosinophils in a total of 100 cells was counted under a microscope. Results are expressed as percentage of eosinophils of BAL fluid.
Twenty-four hours after the final OVA challenge (on day 15), mice were killed, and the serum was collected. The OVA-specific IgE levels were measured with the method of enzyme linked immunosorbent assay (ELISA) according to manufacturer protocol.
Twenty-four hours after the final OVA challenge (on day 15), mice were killed, and the lung tissue samples were collected and fixed in 4% paraformaldehyde. Then, they were embedded in paraffin and cut into […] sections for histopathological analysis. Lung sections were then stained with hematoxylin and eosin (H&E) to calculate the inflammatory changes. The histopathological score was evaluated microscopically in a blinded manner. Five arbitrarily selected fields of each mouse were photographed with an optical microscope and the images were determined and analyzed in detail. […]

[2] = test system: OXA induced atopic dermatitis model; assay: OXA induced atopic dermatitis (AD) model in C57BL/6 mice; format: in vivo; details: Cpd. 4 10, 30 and 100 mg/kg po qd day 7-25; dexamethasone 25 μL of 0.09% (w/v) topical qd; compared with Vehicle
Source text: Atopic dermatitis (AD) is a chronic skin disease that presents with itching, erythema and squamous lesions. Haptenating agent oxazolone (OXA) sensitization and continuous challenge establish AD like skin inflammation.
Female C57BL/6 mice (6 weeks old) were obtained from Biocytogen Laboratory Animal Co. Ltd. Animals were housed and handled in a temperature-controlled environment with a 12-h light/12-h dark cycle. A total of 48 mice were assigned to 6 groups by randomization based on body weight.
To induce AD-like lesion, all right ears of mice except the G1 sham control group were applied with oxazolone (OXA). Briefly, skin inflammation was induced by topical administration with 25 μL of 0.8% OXA dissolved in acetone on day 0, and repeated 25 μl of 0.4% OXA three times a week from day 7 to 25. G1 sham control group was treated same volume of vehicles. Therapeutic groups as 10 mg/kg, 30 mg/kg and 100 mg/kg Cpd. 4 (po, qd, day 7 to day 25) or 25 μL of 0.09% (w/v) dexamethasone (topical, qd, day 7 to day 25) were applied to the mice. The protocols and procedures involving the care and use of animals were approved by the Institutional Animal Care and Use Committee (IACUC) at Biocytogen (Beijing, China).
Ear thickness of mice was measured before application of Oxa and every other day from day 7 to day 26. […]

[3] = day 15, Cpd. 4 30 and 100 mg/kg po qd, Cpd. X 50 mg/kg iv biw, dexamethasone 3 mg/kg po qd, compared with Vehicle

Compound: O=C(NS(=O)(=O)c1ccc(NC[C@H]2COCCO2)c([N+](=O)[O-])c1)c1ccc(N2CCN(CC3=C(c4ccc(Cl)cc4)CC4(CCC4)CC3)CC2)cc1Oc1cnc2[nH]ccc2c1 [Cpd. 4, (S)-N-((4-(((1,4-dioxan-2-yl)methyl)amino)-3-nitrophenyl)sulfonyl)-2-((1H-pyrrolo[2,3-b]pyridin-5-yl)oxy)-4-(4-((6-(4-chlorophenyl)spiro[3.5]non-6-en-7-yl)methyl)piperazin-1-yl)benzamide]
- pathological score in lung tissues (H&E) ([1]; 30 mg/kg po qd day 8-14, day 15): 2.64±0.08
- pathological score in lung tissues (H&E) ([1]; 100 mg/kg po qd day 8-14, day 15): 2.66±0.17
- pathological score in lung tissues (in words) ([1]; Cpd. 4 and Cpd. X, compared with Vehicle): significantly ameliorated
- percentage of eosinophils in BALF [1, 3]: downregulated markedly; also recorded: significantly downregulated
- serum OVA-specific IgE (ELISA) [1, 3]: significantly reduced; also recorded: significantly decreased
- airway stenosis index (penh), airway hyper-responsiveness (AHR) ([1]; methacholine challenge day 13, Cpd. 4 30 and 100 mg/kg po qd day 8-14, Cpd. X 50 mg/kg iv biw, dexamethasone 3 mg/kg po qd, compared with Vehicle): significant inhibitory activity; also recorded: significantly reduced
- ear thickness [2]: significantly reducing the ear thickness; also recorded: significantly reduced
